Tests used:
[1] = tested on: autophagy in HOS cells (GFP-LC3); test: High content screening autophagy assay (GFP-LC3 foci); format: cell-based; conditions: Homo sapiens; HOS cells expressing GFP-LC3; autophagy activated with KU-0063794 500 nM plus Bafilomycin A1 5 nM; 6 hours; foci area per cell; read-out: Median IC50 (μM) Cellular assay
Description: Human osteosarcoma cells (HOS) stably expressing a Green Fluorescent Protein (GFP) tagged LC3 (GFP-LC3) were used to determine the inhibitory effect on autophagy of proprietary compounds. For that purpose, autophagy was activated by using the mTOR inhibitor KU-0063794 at 500 nM in the presence of Bafilomycin A1 (Sigma-Aldrich) at 5 nM. Shortly, cells were plated overnight in clear bottom 96-well plates in DMEM—High Modified media (Hi-Clone Cat #SH30285.01). At the start of the experiment, the media was removed and replaced with fresh media containing the mTOR inhibitor, Bafilomycin A1 and the vehicle or a test compound as indicated. After 6 hours the media was removed, cells were washed twice with ice-cold phosphate buffered saline (PBS) and fixed with 4% paraformaldehyde for 20 minutes at room temperature. Then the cells were washed twice with ice-cold PBS before adding Hoechst 33342 at 1 μg/ml in PBS for nuclear staining. After incubation overnight at 4° C., cells were washed once with PBS to remove the excess of dye and 100 μl of PBS was added to each well. Images were acquired at 20× magnification, 6 images per well, using the ImageXpress automated microscope (Molecular Devices Inc.) and analyzed with MetaXpress software to identify LC3-GFP foci. Foci area per cell values were used to generate dose response curves and […] were calculated using the non-linear fitting analysis in GraphPad Prism software.
The results of the assay are shown in Table 2 (Median IC50 μM HOS-LC3).

[2] = target: Vps34 enzyme (Homo sapiens (Human), UniProt Q8NEB9); test: Vps34 biochemical assay (Adapta kinase assay); conditions: 20 μM ATP and 200 μM PI:PS in substrate mix, 1 h at room temperature, TR-FRET, read-out: Median IC50 nM Adapta
Chain of Vps34 enzyme (Q8NEB9 whole entry): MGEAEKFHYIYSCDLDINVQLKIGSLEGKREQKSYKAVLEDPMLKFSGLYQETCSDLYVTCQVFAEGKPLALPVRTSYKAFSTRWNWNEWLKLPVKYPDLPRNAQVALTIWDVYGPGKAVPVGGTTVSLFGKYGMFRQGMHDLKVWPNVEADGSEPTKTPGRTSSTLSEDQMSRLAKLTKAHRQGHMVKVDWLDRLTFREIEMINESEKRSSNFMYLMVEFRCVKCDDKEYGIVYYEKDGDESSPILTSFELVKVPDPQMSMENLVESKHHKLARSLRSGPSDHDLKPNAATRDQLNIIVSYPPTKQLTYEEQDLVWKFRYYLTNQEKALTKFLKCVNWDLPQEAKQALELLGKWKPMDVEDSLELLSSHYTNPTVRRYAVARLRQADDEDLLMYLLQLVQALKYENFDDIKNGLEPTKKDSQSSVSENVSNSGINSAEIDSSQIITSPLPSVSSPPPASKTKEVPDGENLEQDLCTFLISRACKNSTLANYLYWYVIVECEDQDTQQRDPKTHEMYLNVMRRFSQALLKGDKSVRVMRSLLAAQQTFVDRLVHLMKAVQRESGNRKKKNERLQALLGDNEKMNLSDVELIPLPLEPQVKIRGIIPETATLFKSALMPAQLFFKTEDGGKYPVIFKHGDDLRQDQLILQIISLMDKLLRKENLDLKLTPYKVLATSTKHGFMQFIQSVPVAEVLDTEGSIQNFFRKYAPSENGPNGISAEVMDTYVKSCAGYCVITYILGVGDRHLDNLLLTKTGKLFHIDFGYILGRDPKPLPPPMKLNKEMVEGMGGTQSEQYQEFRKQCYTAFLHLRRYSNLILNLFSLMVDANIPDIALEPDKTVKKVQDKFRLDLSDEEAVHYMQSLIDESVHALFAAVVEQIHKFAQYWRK
Description: Dilution series of compounds of the invention were prepared in DMSO at 100 times the final assay concentration (n1=n0/3 in 10 points). The compounds were further diluted to 4 times the assay concentration in assay buffer (Life technologies buffer Q, PV5125, diluted 5 times supplemented with 2 mM DTT and 2 mM MnCl2). 2.5 μl of the diluted compounds were added to a 384 well assay plate followed by 2.5 μl of 16.5 nM Vps34 enzyme (Life technologies, PV5126). Enzyme and compounds were pre-incubated at rt for 15 min. Then 5 μl of substrate mix containing 20 μM ATP (Life technologies, PV3227) and 200 μM PI:PS substrate (Life technologies, PV5122) in assay buffer was added to the wells containing compound and enzyme. Mixing was performed by pipetting several times. The reaction was incubated at room temperature for 1 h. Then 5 μl stop-detection mix, prepared as described in the Adapta kinase assay kit instructions (Life technologies, PV5099) containing Adapta Eu-anti-ADP antibody (2.3 nM), Alexa Fluor 647 ADP tracer (9 nM) and EDTA (30 mM) in TR-FRET buffer, was added to quench the reaction. Mixing was performed by pipetting several times. The assay plate was then incubated at room temperature for 30 min and read with Artemis micro plate reader. Percent inhibition of the compounds as compared to DMSO treated control samples was calculated. By the use of Dotmatics software compound concentration versus percent inhibition was fitted to generate IC50 values.

| SMILES | IC50 [1] | IC50 [2] |
| --- | --- | --- |
| Nc1cc(-c2cc(-c3cccnc3)[nH]c(=O)c2)ccn1 [Example 5, 4-(2-Amino-4-pyridyl)-6-(3-pyridyl)-1H-pyridin-2-one] | – | 410 nM |
| CC(=O)Nc1cc(-c2cc(N3CCOCC3C3CC3)[nH]c(=O)c2)ccn1 (stereo not drawn) [Example 32, N-[4-[2-(3-cyclopropylmorpholin-4-yl)-6-oxo-1H-pyridin-4-yl]-2-pyridyl]acetamide] | – | 5 nM |
| Nc1cc(-c2cc(-c3ccccc3Cl)[nH]c(=O)c2)ccn1 [Example 11, 4-(2-Amino-4-pyridyl)-6-(2-chlorophenyl)-1H-pyridin-2-one] | 0.742 µM | 45 nM |
| O=C(Nc1cc(-c2cc(-c3ccccc3C(F)(F)F)[nH]c(=O)c2)ccn1)N1CCCC1 [Example 66, N-[4-[2-oxo-6-[2-(trifluoromethyl)phenyl]-1H-pyridin-4-yl]-2-pyridyl]pyrrolidine-1-carboxamide] | – | 147 nM |
| CC(=O)Nc1cc(-c2cc(-c3ccccc3Cl)[nH]c(=O)c2)ccn1 [Example 1, N-[4-[2-(2-chlorophenyl)-6-oxo-1H-pyridin-4-yl]-2-pyridyl]acetamide] | 0.026 µM | – |
| CN(C)C(=O)Nc1cc(-c2cc(-c3ccccc3C(F)(F)F)[nH]c(=O)c2)ccn1 [Example 62, 1,1-Dimethyl-3-[4-[2-oxo-6-[2-(trifluoromethyl)phenyl]-1H-pyridin-4-yl]-2-pyridyl]urea] | – | 50 nM |
| CCS(=O)(=O)N1CCN(c2cc(-c3ccnc(NC(C)=O)c3)cc(=O)[nH]2)C(C(F)(F)F)C1 (stereo not drawn) [Example 30, N-[4-[2-[4-ethylsulfonyl-2-(trifluoromethyl)piperazin-1-yl]-6-oxo-1H-pyridin-4-yl]-2-pyridyl]acetamide] | 0.02 µM | < 5 nM |
| CC(=O)Nc1cc(-c2cc(N3CCCCC3C(F)(F)F)[nH]c(=O)c2)ccn1 (stereo not drawn) [Example 19, N-[4-[2-oxo-6-[2-(trifluoromethyl)-1-piperidyl]-1H-pyridin-4-yl]-2-pyridyl]acetamide] | 0.067 µM | 12 nM |
| COC(=O)Nc1cc(-c2cc(N3CCCCC3C(F)(F)F)[nH]c(=O)c2)ccn1 (stereo not drawn) [Example 70, Methyl N-[4-[2-oxo-6-[2-(trifluoromethyl)-1-piperidyl]-1H-pyridin-4-yl]-2-pyridyl]carbamate] | – | < 5 nM |
| COC(C)(C)C1CCCN1c1cc(-c2ccnc(NC(C)=O)c2)cc(=O)[nH]1 (stereo not drawn) [Example 68, N-[4-[2-[2-(1-methoxy-1-methyl-ethyl)pyrrolidin-1-yl]-6-oxo-1H-pyridin-4-yl]-2-pyridyl]acetamide] | – | 26 nM |
| COCC(=O)Nc1cc(-c2cc(-c3ccccc3Cl)[nH]c(=O)c2)ccn1 [Example 12, N-[4-[2-(2-chlorophenyl)-6-oxo-1H-pyridin-4-yl]-2-pyridyl]-2-methoxy-acetamide] | 0.147 µM | 7 nM |

Results, then the compound that gave them:

| IC50 [1] | IC50 [2] | SMILES |
| --- | --- | --- |
| 0.023 µM | < 5 nM | COC(=O)Nc1cc(-c2cc(N3CCOCC3C(F)(F)F)[nH]c(=O)c2)ccn1 (stereo not drawn) [Example 45, Methyl N-[4-[2-oxo-6-[3-(trifluoromethyl)morpholin-4-yl]-1H-pyridin-4-yl]-2-pyridyl]carbamate] |
| – | < 5 nM | CC(=O)Nc1cc(-c2cc(-c3cccnc3C)[nH]c(=O)c2)ccn1 [Example 38, N-[4-[2-(2-methyl-3-pyridyl)-6-oxo-1H-pyridin-4-yl]-2-pyridyl]acetamide] |
| 0.02 µM | < 5 nM | COC(=O)Nc1cc(-c2cc(-c3ccccc3C(F)(F)F)[nH]c(=O)c2)ccn1 [Example 48, Methyl N-[4-[2-oxo-6-[2-(trifluoromethyl)phenyl]-1H-pyridin-4-yl]-2-pyridyl]carbamate] |
| 0.105 µM | < 5 nM | CCn1cc(-c2cc(-c3ccnc(NC(=O)OC)c3)cc(=O)[nH]2)c(C(F)(F)F)n1 [Example 54, Methyl N-[4-[2-[1-ethyl-3-(trifluoromethyl)pyrazol-4-yl]-6-oxo-1H-pyridin-4-yl]-2-pyridyl]carbamate] |
| – | < 5 nM | CC(=O)Nc1cc(-c2cc(-c3cnccc3C)[nH]c(=O)c2)ccn1 [Example 40, N-[4-[2-(4-methyl-3-pyridyl)-6-oxo-1H-pyridin-4-yl]-2-pyridyl]acetamide] |
| 0.046 µM | < 5 nM | CC(=O)Nc1cc(-c2cc(-c3cscc3C(F)(F)F)[nH]c(=O)c2)ccn1 [Example 42, N-[4-[2-oxo-6-[4-(trifluoromethyl)-3-thienyl]-1H-pyridin-4-yl]-2-pyridyl]acetamide] |
| 0.022 µM | < 5 nM | COC(=O)Nc1cc(-c2cc(-c3cccnc3C(F)(F)F)[nH]c(=O)c2)ccn1 [Example 52, Methyl N-[4-[2-oxo-6-[2-(trifluoromethyl)-3-pyridyl]-1H-pyridin-4-yl]-2-pyridyl]carbamate] |
| 0.063 µM | < 5 nM | CC(=O)Nc1cc(-c2cc(-c3ccccc3C(F)(F)F)[nH]c(=O)c2)ccn1 [Example 34, N-[4-[2-oxo-6-[2-(trifluoromethyl)phenyl]-1H-pyridin-4-yl]-2-pyridyl]acetamide] |
| 0.138 µM | < 5 nM | CCn1cc(-c2cc(-c3ccnc(NC(C)=O)c3)cc(=O)[nH]2)c(C(F)(F)F)n1 [Example 44, N-[4-[2-[1-ethyl-3-(trifluoromethyl)pyrazol-4-yl]-6-oxo-1H-pyridin-4-yl]-2-pyridyl]acetamide] |
| 0.016 µM | < 5 nM | O=C(Nc1cc(-c2cc(N3CCCCC3C(F)(F)F)[nH]c(=O)c2)ccn1)C1CC1 (stereo not drawn) [Example 21, N-[4-[2-oxo-6-[2-(trifluoromethyl)-1-piperidyl]-1H-pyridin-4-yl]-2-pyridyl]cyclopropanecarboxamide] |
| 0.029 µM | < 5 nM | COC(=O)Nc1cc(-c2cc(-c3ccccc3Cl)[nH]c(=O)c2)ccn1 [Example 50, Methyl N-[4-[2-(2-chlorophenyl)-6-oxo-1H-pyridin-4-yl]-2-pyridyl]carbamate] |
| 0.092 µM | < 5 nM | CC(=O)Nc1cc(-c2cc(-c3cccnc3C(F)(F)F)[nH]c(=O)c2)ccn1 [Example 36, N-[4-[2-oxo-6-[2-(trifluoromethyl)-3-pyridyl]-1H-pyridin-4-yl]-2-pyridyl]acetamide] |
| 0.113 µM | < 5 nM | CC(=O)Nc1cc(-c2cc(N3CCOCC3C(F)(F)F)[nH]c(=O)c2)ccn1 (stereo not drawn) [Example 26, N-[4-[2-oxo-6-[3-(trifluoromethyl)morpholin-4-yl]-1H-pyridin-4-yl]-2-pyridyl]acetamide] |
